These results are taken from patent US8613927B2, “High affinity human antibodies to human nerve growth factor” (Regeneron Pharmaceuticals, Inc., priority 2007, dated 2013).

The test system of one assay is C57BL/6 male mice. The assay can be described thus: Seltzer model of neuropathic pain, Hargreaves' test. The class given is in vivo, mouse. From the text:
Neuropathic pain. The mouse Seltzer model of neuropathic pain (Malmberg et al. (1998) Pain 76:215-222) was used with C57BL/6 male mice, in which a partial nerve injury was produced by tying a tight ligature with a 7-0 silk suture around approximately ⅓ to ½ the diameter of the sciatic nerve of one single thigh per mouse. Post-surgery, the mice were allowed to recover for at least two days and then they were studied for several weeks post-surgery for thermal hyperalgesia in the Hargreaves' test. Controls were sham-operated mice in which the sciatic nerve was exposed and elevated but not tied. Following surgery, the mice were tested at day […] and at day 7 post-surgery to confirm that the thermal hyperalgesia had developed.
Following the Seltzer surgery, mice were tested at days 5 and 7 post-surgery to confirm that the thermal hyperalgesia had developed.

Assay [1] has as its system circulating levels of neurotrophin-3 (NT-3). The assay can be described thus: Serum NT-3 sandwich ELISA, mice of post incision pain model. It counts as in vivo, mouse. The note with it: day 4, 25 mg/kg i.p., mean±std dev, limit of detection ~40 pg/ml. From the text: On day 4, after the behavioral tests from post incision pain model were completed, the mice's sera were collected and analyzed for circulating levels of neurotrophin-3 (NT-3) using a sandwich ELISA. The limit of detection (˜40 pg/ml) was defined as two standard deviations (2σ) above background with a minimum of five NT-3 standards to define the response to concentration curve.

A further assay has as its system C57BL/6 mice. Briefly: Post-operative incision pain model, mechanical allodynia in von Frey test. The note with it: Table 17. It counts as in vivo, mouse. The protocol:
Thermal hyperalgesia was studied in the Hargreaves' test and mechanical allodynia was tested in the von Frey test. In this latter test, mice were tested after being acclimated for 2-3 hours for 4 days in an apparatus with a wire mesh floor. The test was performed by applying, in ascending order, a series of von Frey hairs through the wire mesh onto the plantar surface of the hind paw with the incision. A response was considered positive if the paw was raised from the platform in response to application of the filament. Starting from the thinnest hair, each von Frey filament was applied up to five times until a response was observed.

In assay [2] the target is Human NGF binding to human TrkA-hFc (Homo sapiens, UniProt P01138, DEL136-138/DEL208-209). The assay can be described thus: BIACORE receptor blocking assay, free NGF bound to TrkA-hFc. Conditions: percentage free NGF bound; NGF 10-25 nM with molar excess of antibody; NGF alone = 100%. From the text:
(§1) To identify blocking antibodies, a receptor blocking assay was designed using a BIACORE™ 3000 instrument. Recombinant human TrkA-hFc and human p75-hFc proteins were amine-coupled to a CM5 chip to a density of about 5000-6000 RU.

The target of assay [3] is Human NGF binding to human p75-hFc (Homo sapiens, UniProt P01138, DEL136-138/DEL208-209). Briefly: BIACORE receptor blocking assay, free NGF bound to p75-hFc. The note with it: percentage free NGF bound; NGF 10-25 nM with molar excess of antibody; NGF alone = 100%.
Sequence of Human NGF binding to human p75-hFc (P01138 with tags, fused parts or gaps DEL136-138/DEL208-209): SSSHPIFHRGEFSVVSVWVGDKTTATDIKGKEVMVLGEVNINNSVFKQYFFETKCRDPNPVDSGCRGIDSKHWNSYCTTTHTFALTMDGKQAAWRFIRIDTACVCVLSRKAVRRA
From the text: as §1

Sequence of Human NGF binding to human TrkA-hFc (P01138 with tags, fused parts or gaps DEL136-138/DEL208-209): as above

With “REGN475: HCVR/LCVR SEQ ID NO:108/110 and mutant hIgG4 SEQ ID NO:543”, the pain relief result in the assay on C57BL/6 male mice (50 mg/kg s.c. or i.p. at day 7 post-surgery, p<0.001-0.05) is listed as “Significant pain relief was observed”. Moreover, the “mean percent change from Hargreaves baseline” value (from here on “mean percent change”) in the assay with C57BL/6 male mice (Table 25, 50 mg/kg s.c. at day 7, day 5 after surgery) is reported as −55.2 ± 3.5%; with C57BL/6 male mice (Table 25, 50 mg/kg s.c. at day 7, day 7), −50.9 ± 4.3%; with C57BL/6 male mice (Table 25, 50 mg/kg s.c. at day 7, day 8), 10.3 ± 14.1%; in the assay with C57BL/6 male mice (Table 25, 50 mg/kg s.c. at day 7, day 9), 8.2 ± 7.2%; with C57BL/6 male mice (Table 25, 50 mg/kg s.c. at day 7, day 12), −20.1 ± 4.3%; with C57BL/6 male mice (Table 25, 50 mg/kg s.c. at day 7, day 15) it was −14.1 ± 6.1%. The “mean percent change” value in the assay with C57BL/6 male mice (Table 25, 50 mg/kg s.c. at day 7, day 19) was 3.0 ± 10.9%; in the assay with C57BL/6 male mice (Table 25, 50 mg/kg s.c. at day 7, day 22), −13.7 ± 13.4%; in the assay with C57BL/6 male mice (Table 25, 50 mg/kg s.c. at day 7 post-surgery, Baseline), 0.0 ± 0.0%; with C57BL/6 male mice (Table 26, 50 mg/kg i.p. at day 7, day 5 after surgery) it was −58.7 ± 2.3%; in the assay with C57BL/6 male mice (Table 26, 50 mg/kg i.p. at day 7, day 7) it was −61.7 ± 2.7%; in the assay with C57BL/6 male mice (Table 26, 50 mg/kg i.p. at day 7, day 8), −8.2 ± 16.1%. The “mean percent change” value in the assay on C57BL/6 male mice (Table 26, 50 mg/kg i.p. at day 7, day 9) was −7.9 ± 9.6%; in the assay on C57BL/6 male mice (Table 26, 50 mg/kg i.p. at day 7, day 12) it was −0.1 ± 22.8%; in the assay on C57BL/6 male mice (Table 26, 50 mg/kg i.p. at day 7, day 15), −10.8 ± 18.0%; in the assay with C57BL/6 male mice (Table 26, 50 mg/kg i.p. at day 7 post-surgery, Baseline), 0.0 ± 0.0%. In addition, the “Serum NT-3” value in assay [1] is recorded as “not detected”. In addition, the “Paw Withdrawal Threshold” value in the assay on C57BL/6 mice (25 mg/kg i.p. on day 1 post-surgery, Baseline) was found to be 1.286 ± 0.074 g; in the assay with C57BL/6 mice (25 mg/kg i.p., 5 hr after treatment), 0.034 ± 0.009 g; with C57BL/6 mice (25 mg/kg i.p., 22 hr after treatment), 0.714 ± 0.074 g; in the assay on C57BL/6 mice (25 mg/kg i.p., 45 hr after treatment), 1.086 ± 0.184 g; with C57BL/6 mice (25 mg/kg i.p., 70 hr after treatment), 1.571 ± 0.437 g; with C57BL/6 mice (25 mg/kg i.p., Day 1 (post-surgery, before injection)), 0.010 ± 0.002 g.

B1: TrkA-hFc: soluble receptorbody: extracellular domain of human TrkA fused with Fc portion of human IgG1 (protein)
chain: AAPCPDACCPHGSSGLRCTRDGALDSLHHLPGAENLTELYIENQQHLQHLELRDLRGLGELRNLTIVKSGLRFVAPDAFHFTPRLSRLNLSFNALESLSWKTVQGLSLQELVLSGNPLHCSCALRWLQRWEEEGLGGVPEQKLQCHGQGPLAHMPNASCGVPTLKVQVPNASVDVGDDVLLRCQVEGRGLEQAGWILTELEQSATVMKSGGLPSLGLTLANVTSDLNRKNVTCWAENDVGRAEVSVQVNVSFPASVQLHTAVEMHHWCIPFSVDGQPAPSLRWLFNGSVLNETSFIFTEFLEPAANETVRHGCLRLNQPTHVNNGNYTLLAANPFGQASASIMAAFMDNPFEFNPEDPIPVSFSPVDTNSTSGDPVEKKDETPFGVSVAVG
modifications: left off: a dimerising Fc or GST
notes: soluble receptorbody: extracellular domain of human TrkA fused with Fc portion of human IgG1
Consider B1, for which, in assay [2], the “% Binding TrkA-hFc” value was determined as 10%. For the same molecule, the “% Binding p75-hFc” value in assay [3] is on record as 15%.

B2: p75-hFc: soluble receptorbody: extracellular domain of human p75 fused with Fc portion of human IgG1 (protein)
chain: KEACPTGLYTHSGECCKACNLGEGVAQPCGANQTVCEPCLDSVTFSDVVSATEPCKPCTECVGLQSMSAPCVEADDAVCRCAYGYYQDETTGRCEACRVCEAGSGLVFSCQDKQNTVCEECPDGTYSDEANHVDPCLPCTVCEDTERQLRECTRWADAECEEIPGRWITRSTPPEGSDSTAPSTQEPEAPPEQDLIASTVAGVVTTVMGSSQPVVTRGTTDN
modifications: left off: a dimerising Fc or GST
notes: soluble receptorbody: extracellular domain of human p75 fused with Fc portion of human IgG1
As for B2, the “% Binding TrkA-hFc” value in assay [2] is reported as 3%. In assay [3], the “% Binding p75-hFc” value is on record as 5%.
